Source: patent EP0168881B1, “Oxa-fenchyl esters and amides of alpha-l-aspartyl-d-phenylglycine” (THE PROCTER & GAMBLE COMPANY, priority 1984, dated 1986)
Like-named read-outs stand apart in the source and are kept apart here. Non-standard residues stand in square brackets, D forms with d. Residues, ends and D or L forms follow the SMILES beside them. Phg = N[C@H](C(=O)O)c1ccccc1

Columns and labels:
[1] = cited from earlier work; for taste: taste in words, background art; for sweetness intensity: background art values
[2] = carbonated beverages; background statement; cited from earlier work
[3] = Sweetness intensity relative to sucrose, taste panel; type: in vivo, Male subjects; settings: based on informal panel testing
Source text: The sweetness intensity of the esters and amides of the present invention relative to sucrose can be determined according to the following procedure:
Male subjects are chosen at random from a group of about 20 persons who have previously been selected on the basis of proven tasting acuity, i.e., persons who could.easily recognize the four basic tastes (sweet, sour, bitter and salty) and who are adept at quantifying their own physiological response numerically. The subjects are asked to taste and expectorate about 10 ml of a test sample (temperature of about 22°C) having dissolved therein the ester of amide. […] Sweetness intensity of the test sample is recorded by the subject making a mark on the linear scale at a point they consider equal in sweetness among the standard samples; interpolation between standards is encouraged. After completion of the panel, a five point numeric scale is superimposed on the linear scales to obtain numerical data; data is averaged and recorded to.the nearest 0.25 unit..Equivalent sucrose sweetness is determined by referring to graphs of (w/v) sucrose concentration in the standard samples versus a linear numeric scale.
Sweetness intensity is calculated by dividing the concentration (w/v) of perceived sweetness by the concentration (w/v) of the ester or amide required to produce that sweetness. […]

| Structure (SMILES) | sweetness intensity [1] | also measured |
| --- | --- | --- |
| COC(=O)[C@@H](Cc1ccccc1)NC(=O)[C@@H](N)CC(=O)O [methyl ester of L-aspartyl-D-phenylalanine] (H-Asp-[dF]-OMe) | – | taste [1]: bitter |
| COC(=O)[C@H](Cc1ccccc1)NC(=O)[C@@H](N)CC(=O)O [aspartame, a/pha-L-aspartyl-L-phenylalanine lower alkyl esters, in particular the methyl ester known as aspartame] (H-Asp-Phe-OMe) | 150-200 times that of sucrose | hydrolytic stability [2]: hydrolytically unstable in most carbonated beverages |
| CC12CCC(O1)C(C)(C)C2OC(=O)C(NC(=O)C(N)CC(=O)O)c1ccccc1 (single isomer, unassigned) [Example 2, alpha-L-Aspartyl-D-phenylglycine-alpha-7-oxa-fenchyl ester] | – | sweetness intensity [3]: approximately 1000 X |
| COC(=O)C(NC(=O)[C@@H](N)CC(=O)O)C(=O)OC1C2(C)CCC(C2)C1(C)C (stereo partly drawn) [methyl] | – | sweetness intensity ([1]; listed as R^1a is methyl ester group, R^2a is fenchyl group): 22,200-33,200 times that of sucrose |
| CC1CCC(C)C1NC(=O)[C@@H](C)NC(=O)[C@@H](N)CC(=O)O (stereo partly drawn) [2,5-dimethylcyclopentyl] | 520 times that of sucrose | – |
| C[C@@H](NC(=O)[C@@H](N)CC(=O)O)C(=O)NC1C(C)(C)S(=O)(=O)C1(C)C | 1000 times that of sucrose | – |
| C[C@@H](NC(=O)[C@@H](N)CC(=O)O)C(=O)NC1C2(C)CCC(C2)C1(C)C (stereo partly drawn) [fenchyl] | 320 times that of sucrose | – |
| C[C@@H](NC(=O)[C@@H](N)CC(=O)O)C(=O)NC1C(C)(C)SC1(C)C [2,2,4,4-tetramethylthietan-3-yl] | 2000 times that of sucrose | – |
| O=C1NS(=O)(=O)c2ccccc21 [Saccharin] | about 300 times that of sucrose | taste [1]: undesirable lingering bitter aftertaste |
| COC(=O)[C@@H](NC(=O)[C@@H](N)CC(=O)O)c1ccccc1 [methyl ester of L-aspartyl-L-phenylglycine] (H-Asp-[Phg]-OMe) | 100-1000 times that of sucrose | taste [1]: quite sweet |
| C[C@@H](NC(=O)[C@@H](N)CC(=O)O)C(=O)NC(C1CC1)C1CC1 [dicyclopropylcarbinyl] | 1200 times that of sucrose | – |
| CC1CCCC(C)C1NC(=O)[C@@H](C)NC(=O)[C@@H](N)CC(=O)O (stereo partly drawn) [2,6-dimethylcyclohexyl] | 600 times that of sucrose | – |
